The values below come from patent publication US20250249012A1, “COMPOSITIONS AND METHODS FOR TREATING AND/OR PREVENTING A VIRAL INFECTION” (priority 2022, published 2025).

Where a name gives a salt, the structure may show the parent alone.

This assay relates to SARS-CoV-2 beta variant. Kind of assay: […]; lung PCR and histopathology. The class given is in vivo, BALB C mice.

Consider “N-[(E)-(3-methylphenyl)methylidencamino]-6-morpholin-4-yl-2-(2-pyridin-2-ylethoxy)pyrimidin-4-amine [Apilimod dimesylate]”, for which, for the setting “Apilimod dimesylate alone”, the “antiviral effect upon sole administration” value was “lack of antiviral effect”. The “antiviral effect of single drug” value (mouse, in vivo) is “no antiviral effect”.

As to `N=C(N)c1ccc2cc(OC(=O)c3ccc(N=C(N)N)cc3)ccc2c1` [Nafamostat mesylate], where the note is “Nafamostat mesylate alone”, the “antiviral effect upon sole administration” value is “partial antiviral inhibitory effect”. Further, under “mouse, in vivo”, the “antiviral effect of single drug” value is listed as “no effect” and the “reduction of infection (PCR) by single drug” value is reported as 5-10 fold.
